The values that follow come from US20170081347A1, “FUNCTIONALIZED AZABORINE COMPOUNDS AND AZABORINE-CONTAINING BIARYLCARBOXAMIDES, AND COMPOSITIONS AND METHODS THEREOF” (The Trustees of Boston College, priority 2014, published 2017).

Structures are written as SMILES. ≈ marks a conversion by molar mass, not a printed value. Like-named read-outs stand apart in the source and are kept apart here. Some results are limits rather than exact numbers.

Data set [1] is described as follows: Solubility FASSIF (fasted state simulated intestinal fluid). It is filed as physicochemical.
A further data set is described as follows: Solubility pH = 6.8. It is filed as physicochemical. To be noted: aqueous buffer.
Another data set addresses CYP3A4 (Homo sapiens, UniProt P08684). Briefly: CYP3A4 (Cytochrome P450 3A4). It is filed as in vitro ADME.
In the next data set the target is hERG (Homo sapiens, UniProt Q12809). Briefly: hERG.
Sequence of hERG (Q12809 whole entry): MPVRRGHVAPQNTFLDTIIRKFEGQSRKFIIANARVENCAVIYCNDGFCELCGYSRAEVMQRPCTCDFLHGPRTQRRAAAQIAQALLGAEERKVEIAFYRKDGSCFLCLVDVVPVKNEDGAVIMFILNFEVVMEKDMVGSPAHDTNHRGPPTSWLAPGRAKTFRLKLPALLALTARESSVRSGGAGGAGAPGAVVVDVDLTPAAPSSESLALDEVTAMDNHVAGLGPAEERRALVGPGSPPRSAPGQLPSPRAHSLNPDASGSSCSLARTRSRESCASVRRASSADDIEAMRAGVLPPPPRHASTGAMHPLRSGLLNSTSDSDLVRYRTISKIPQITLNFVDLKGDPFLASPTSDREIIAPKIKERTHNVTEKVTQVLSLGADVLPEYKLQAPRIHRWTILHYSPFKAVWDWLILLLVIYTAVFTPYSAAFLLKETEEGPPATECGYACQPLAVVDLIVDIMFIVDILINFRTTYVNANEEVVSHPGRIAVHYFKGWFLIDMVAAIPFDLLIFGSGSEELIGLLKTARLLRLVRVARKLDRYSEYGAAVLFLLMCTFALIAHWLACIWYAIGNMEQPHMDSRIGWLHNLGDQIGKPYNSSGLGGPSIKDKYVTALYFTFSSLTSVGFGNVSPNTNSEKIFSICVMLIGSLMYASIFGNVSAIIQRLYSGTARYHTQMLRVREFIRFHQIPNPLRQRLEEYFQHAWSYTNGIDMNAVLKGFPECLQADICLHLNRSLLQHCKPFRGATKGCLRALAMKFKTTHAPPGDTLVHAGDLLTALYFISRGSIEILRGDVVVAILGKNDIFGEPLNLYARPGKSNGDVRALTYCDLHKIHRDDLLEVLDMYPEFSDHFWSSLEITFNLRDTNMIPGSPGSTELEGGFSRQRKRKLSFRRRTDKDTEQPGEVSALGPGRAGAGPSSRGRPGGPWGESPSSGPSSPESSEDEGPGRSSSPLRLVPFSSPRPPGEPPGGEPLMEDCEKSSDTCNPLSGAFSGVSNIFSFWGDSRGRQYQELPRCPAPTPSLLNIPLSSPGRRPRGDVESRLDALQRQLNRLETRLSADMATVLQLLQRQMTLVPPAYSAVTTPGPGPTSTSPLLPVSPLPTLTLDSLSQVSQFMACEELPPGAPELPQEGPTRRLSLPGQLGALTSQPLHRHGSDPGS
A short description of the next data set: RLM Cl. It is filed as in vitro ADME.
A short description of a further data set: LogD. It is filed as physicochemical.
Data set [2] can be described thus: PAMPA (parellel artificial membrane permeability assay). It is filed as in vitro ADME. Also noted: unit not given here. (In general: The PAMPA barrier holds no transporters, so it reflects passive diffusion.)
The target of the next data set is Dopamine D3 (Homo sapiens, UniProt P35462). Briefly: Dopamine D3 antagonist. It is filed as biochemical. As for the experimental part: (§1) Bioactivity and ADME testing were performed for certain compounds of the invention.
Sequence of Dopamine D3 (P35462 whole entry): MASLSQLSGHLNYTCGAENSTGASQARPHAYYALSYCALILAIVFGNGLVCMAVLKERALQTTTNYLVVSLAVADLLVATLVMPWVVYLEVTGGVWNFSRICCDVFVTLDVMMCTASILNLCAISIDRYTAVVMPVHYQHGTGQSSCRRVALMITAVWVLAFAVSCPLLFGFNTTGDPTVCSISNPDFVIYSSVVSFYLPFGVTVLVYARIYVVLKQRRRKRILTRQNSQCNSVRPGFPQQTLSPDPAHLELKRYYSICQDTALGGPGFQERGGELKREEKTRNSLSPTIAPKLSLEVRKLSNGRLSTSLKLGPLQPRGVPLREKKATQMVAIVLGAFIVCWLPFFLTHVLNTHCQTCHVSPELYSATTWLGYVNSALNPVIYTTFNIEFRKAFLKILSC
The target of a further data set is Dopamine D2 (Homo sapiens, UniProt P14416). Briefly: Dopamine D2 antagonist. It is filed as biochemical.
Sequence of Dopamine D2 (P14416 whole entry): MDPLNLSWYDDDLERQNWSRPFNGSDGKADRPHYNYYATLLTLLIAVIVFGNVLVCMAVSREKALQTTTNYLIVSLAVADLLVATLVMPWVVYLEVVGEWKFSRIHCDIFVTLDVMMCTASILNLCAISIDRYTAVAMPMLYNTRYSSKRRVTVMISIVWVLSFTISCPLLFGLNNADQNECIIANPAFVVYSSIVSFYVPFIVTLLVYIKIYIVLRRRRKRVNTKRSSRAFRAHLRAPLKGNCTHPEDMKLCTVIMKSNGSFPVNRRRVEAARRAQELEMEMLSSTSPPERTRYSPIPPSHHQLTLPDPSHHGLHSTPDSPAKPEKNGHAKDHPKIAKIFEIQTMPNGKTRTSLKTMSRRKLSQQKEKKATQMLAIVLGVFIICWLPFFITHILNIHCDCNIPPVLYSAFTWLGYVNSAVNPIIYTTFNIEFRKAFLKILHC
The next data set addresses CDK2 (Homo sapiens, UniProt P24941). Briefly: CDK2 inhibitor. It is filed as biochemical.
Another data set has as its target T1, PPARδ (Homo sapiens, UniProt Q03181).
T1 sequence (Q03181 1-441): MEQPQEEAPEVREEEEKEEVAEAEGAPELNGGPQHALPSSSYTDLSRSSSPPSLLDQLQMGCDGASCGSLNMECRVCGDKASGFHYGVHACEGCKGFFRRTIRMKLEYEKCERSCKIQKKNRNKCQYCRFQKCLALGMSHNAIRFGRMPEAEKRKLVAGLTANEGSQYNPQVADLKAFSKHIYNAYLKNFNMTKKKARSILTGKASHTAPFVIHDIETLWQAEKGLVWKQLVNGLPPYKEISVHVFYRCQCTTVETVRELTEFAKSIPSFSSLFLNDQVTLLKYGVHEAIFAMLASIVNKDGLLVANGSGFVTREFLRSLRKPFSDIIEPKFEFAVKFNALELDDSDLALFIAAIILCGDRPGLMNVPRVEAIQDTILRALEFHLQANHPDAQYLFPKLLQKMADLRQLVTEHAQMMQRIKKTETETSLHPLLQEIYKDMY
The data set is described as follows: PPARδ antagonist. It is filed as biochemical.

Another data set has as its target T2, PPARγ (Homo sapiens, UniProt P37231).
T2 sequence (P37231 1-505): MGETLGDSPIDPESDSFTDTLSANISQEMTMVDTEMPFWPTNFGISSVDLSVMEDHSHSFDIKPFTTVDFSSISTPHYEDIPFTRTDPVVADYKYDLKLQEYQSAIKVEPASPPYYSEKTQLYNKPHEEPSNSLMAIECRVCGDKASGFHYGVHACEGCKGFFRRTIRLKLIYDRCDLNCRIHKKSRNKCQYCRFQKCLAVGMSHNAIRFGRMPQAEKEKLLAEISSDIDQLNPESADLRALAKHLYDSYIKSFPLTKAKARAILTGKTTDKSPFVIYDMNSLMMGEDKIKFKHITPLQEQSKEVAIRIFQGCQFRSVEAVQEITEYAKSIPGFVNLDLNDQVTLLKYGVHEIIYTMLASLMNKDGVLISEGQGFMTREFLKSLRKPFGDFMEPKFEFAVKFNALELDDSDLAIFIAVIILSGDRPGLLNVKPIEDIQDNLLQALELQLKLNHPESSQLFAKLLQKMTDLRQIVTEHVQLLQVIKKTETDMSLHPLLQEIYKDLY
Briefly: PPARγ antagonist. It is filed as biochemical.

Another data set addresses T3, PPARα (Homo sapiens, UniProt Q07869).
T3 sequence (Q07869 1-468): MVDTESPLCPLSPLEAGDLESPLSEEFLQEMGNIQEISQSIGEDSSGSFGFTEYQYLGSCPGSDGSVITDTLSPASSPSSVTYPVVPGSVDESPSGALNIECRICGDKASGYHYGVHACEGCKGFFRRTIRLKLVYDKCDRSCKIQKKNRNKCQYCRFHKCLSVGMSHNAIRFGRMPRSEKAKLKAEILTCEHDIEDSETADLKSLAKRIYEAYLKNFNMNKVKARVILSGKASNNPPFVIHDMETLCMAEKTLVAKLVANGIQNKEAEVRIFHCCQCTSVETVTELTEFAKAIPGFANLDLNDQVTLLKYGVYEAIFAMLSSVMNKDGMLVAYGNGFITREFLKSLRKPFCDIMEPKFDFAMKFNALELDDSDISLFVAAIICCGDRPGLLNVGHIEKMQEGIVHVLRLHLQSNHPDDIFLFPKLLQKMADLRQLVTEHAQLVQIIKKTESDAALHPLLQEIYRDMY
Briefly: PPARα inverse agonist. It is filed as biochemical.

The target of the next data set is Opioid μ (Homo sapiens, UniProt P35372). Briefly: Opioid μ antagonist. It is filed as biochemical. On the procedure: as §1
Sequence of Opioid μ (P35372 whole entry): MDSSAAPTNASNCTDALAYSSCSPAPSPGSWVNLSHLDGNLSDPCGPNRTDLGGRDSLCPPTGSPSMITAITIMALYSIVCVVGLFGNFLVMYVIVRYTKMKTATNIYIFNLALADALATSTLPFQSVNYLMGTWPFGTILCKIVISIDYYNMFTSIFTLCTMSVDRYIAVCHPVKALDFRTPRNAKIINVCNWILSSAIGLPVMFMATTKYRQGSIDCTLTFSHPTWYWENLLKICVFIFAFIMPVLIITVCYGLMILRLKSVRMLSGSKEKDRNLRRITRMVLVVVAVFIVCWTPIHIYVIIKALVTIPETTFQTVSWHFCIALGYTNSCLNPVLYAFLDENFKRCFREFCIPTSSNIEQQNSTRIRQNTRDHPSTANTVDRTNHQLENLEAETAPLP
In another data set the target is Opioid δ (Homo sapiens, UniProt P41143). The data set is described as follows: Opioid δ antagonist. It is filed as biochemical. As for the experimental part:
as §1

Sequence of CYP3A4 (P08684 whole entry): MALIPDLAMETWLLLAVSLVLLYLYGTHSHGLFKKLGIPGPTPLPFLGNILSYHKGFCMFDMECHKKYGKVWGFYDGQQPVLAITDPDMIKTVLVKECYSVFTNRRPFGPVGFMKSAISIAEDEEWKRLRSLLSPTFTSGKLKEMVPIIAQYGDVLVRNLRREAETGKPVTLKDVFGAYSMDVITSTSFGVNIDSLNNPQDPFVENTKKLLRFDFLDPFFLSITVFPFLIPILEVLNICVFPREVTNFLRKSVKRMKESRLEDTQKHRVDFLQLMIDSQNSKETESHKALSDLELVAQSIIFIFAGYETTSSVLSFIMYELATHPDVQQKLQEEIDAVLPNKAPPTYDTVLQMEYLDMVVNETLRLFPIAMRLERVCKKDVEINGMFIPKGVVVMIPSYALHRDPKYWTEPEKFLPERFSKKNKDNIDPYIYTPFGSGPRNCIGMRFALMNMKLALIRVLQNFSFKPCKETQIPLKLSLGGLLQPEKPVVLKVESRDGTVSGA
Sequence of Opioid δ (P41143 whole entry): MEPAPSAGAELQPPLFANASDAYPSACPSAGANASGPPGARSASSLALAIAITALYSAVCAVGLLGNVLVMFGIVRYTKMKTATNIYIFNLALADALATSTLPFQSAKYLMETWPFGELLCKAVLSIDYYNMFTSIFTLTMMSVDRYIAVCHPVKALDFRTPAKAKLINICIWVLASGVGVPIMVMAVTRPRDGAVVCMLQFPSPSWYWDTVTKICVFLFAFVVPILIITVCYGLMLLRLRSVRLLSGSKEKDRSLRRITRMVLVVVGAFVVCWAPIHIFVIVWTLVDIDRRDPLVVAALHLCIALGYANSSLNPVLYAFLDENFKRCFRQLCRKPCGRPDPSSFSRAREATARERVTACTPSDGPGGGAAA

By solubility is commonly meant the concentration that dissolves in the medium under given conditions. With `O=C(O)Cc1ccc(-c2ccccc2)cc1`, the solubility in [1] was 840 µM (≈ 178 µg/mL); in “Solubility pH = 6.8”, 890 µM (≈ 189 µg/mL).
The term IC50 denotes the midpoint of a concentration-inhibition curve. As for `O=C(O)Cc1ccc(B2C=CC=CN2)cc1`, the values for the solubility (in data set [1]; in “Solubility pH = 6.8”) were 790 µM (≈ 168 µg/mL) and above 1000 µM, respectively. In addition, the IC50 at CYP3A4 was above 20 µM; at hERG it was above 30 µM.
The term logD denotes the decadic logarithm of the distribution of all forms, ionised or not, between an organic phase and buffer at a given pH. For `O=C(NC1CCN(Cc2ccccc2)C1)c1ccc(-c2ccccc2)cc1` (stereo not shown), the “RLM Cl” value in the data set “RLM Cl” was found to be 2.62 L/h/kg. The solubility in [1] is 27 µM (≈ 9.62 µg/mL); in “Solubility pH = 6.8” it was 13 µM (≈ 4.63 µg/mL). The IC50 is above 20 µM on CYP3A4 and 0.32 µM at hERG. Moreover, the logD in the data set “LogD” is 4.4. The PAMPA in data set [2] was −3.6.
Regarding `O=C(NC1CCN(Cc2ccccc2)C1)c1ccc(B2C=CC=CN2)cc1` (stereo not shown), in “RLM Cl”, the “RLM Cl” value is 2.91 L/h/kg. The solubility was 597 µM (≈ 213 µg/mL) in data set [1] and above 30 µM in “Solubility pH = 6.8”. Also, the IC50 at CYP3A4 is above 20 µM; on hERG, 1.4 µM. Also, the logD in “LogD” worked out at 4.1. In [2], this compound had a PAMPA of −4.8.
Regarding `COc1ccccc1N1CCN(CCCCNC(=O)c2ccc(-c3ccccc3)cc2)CC1`, the “RLM Cl” value in “RLM Cl” is 3.08 L/h/kg. Further, the half-inhibitory concentration (IC50) on Dopamine D3 is 0.003 µM; against CYP3A4 it was above 20 µM; against hERG it was 0.042 µM. Besides, the figures for the solubility (in data set [1]; in “Solubility pH = 6.8”) were 21 µM (≈ 9.32 µg/mL) and below 5 µM, respectively. In the data set “LogD”, this compound came in with a logD of 4.2. Further, the PAMPA in [2] is given as −3.9.
On to `COc1ccccc1N1CCN(CCCCNC(=O)c2ccc(B3C=CC=CN3)cc2)CC1`, for which the “RLM Cl” value in “RLM Cl” is above 3.18 L/h/kg. Further, the 50% inhibitory concentration (IC50) came to 0.004 µM against Dopamine D3, 11 µM at CYP3A4, 0.52 µM against Dopamine D2 and 0.17 µM on hERG. Also, the solubility is 220 µM (≈ 97.8 µg/mL) in data set [1] and 46 µM (≈ 20.4 µg/mL) in “Solubility pH = 6.8”. Moreover, in “LogD”, the logD came out at 4.1. In [2], this compound came in with a PAMPA of −4.3.
Turning to `COc1ccc2[nH]cc(CCNC(=O)c3ccc(-c4ccccc4)cc3)c2c1`, the “RLM Cl” value in the data set “RLM Cl” came to 2.78 L/h/kg. Further, the 50% inhibitory concentration (IC50) was above 20 µM against CYP3A4 and 11 µM at hERG. Further, the logD in “LogD” is above 5. The PAMPA in data set [2] is given as −4.1.
On to `COc1ccc2[nH]cc(CCNC(=O)c3ccc(B4C=CC=CN4)cc3)c2c1`, for which the “RLM Cl” value in “RLM Cl” was determined as 3.08 L/h/kg. Besides, the figures for the IC50 against CYP3A4 and on hERG were 17 µM and 7.9 µM, respectively. The logD in “LogD” turned out to be 5. This compound showed a PAMPA in data set [2] of −4.2.
For `O=C(NCc1ccncc1)c1ccc(B2C=CC=CN2)cc1`, the “RLM Cl” value in “RLM Cl” amounted to 2.38 L/h/kg. Further, the solubility is 130 µM (≈ 37.6 µg/mL) in [1] and 88 µM (≈ 25.4 µg/mL) in “Solubility pH = 6.8”. The IC50 is 8.6 µM on CYP3A4 and above 30 µM against hERG. In addition, the logD in the data set “LogD” was found to be 3.2. Also, the PAMPA in data set [2] is reported as −4.6.
As for `CN(CCc1c[nH]c2ccccc12)C(=O)c1ccc(-c2ccccc2)cc1`, the “RLM Cl” value in “RLM Cl” was determined as 2.92 L/h/kg. Moreover, the solubility (in [1]; in the data set “Solubility pH = 6.8”) was below 5 µM in each case. The IC50 was above 20 µM against CYP3A4 and above 30 µM at hERG. The logD in the data set “LogD” is above 5. In [2], this compound registered a PAMPA of −4.5.
As to `CN(CCc1c[nH]c2ccccc12)C(=O)c1ccc(B2C=CC=CN2)cc1`, the “RLM Cl” value in “RLM Cl” was determined as 3.14 L/h/kg. Besides, the solubility is 13 µM (≈ 4.62 µg/mL) in [1] and below 5 µM in the data set “Solubility pH = 6.8”. Moreover, the figures for the IC50 at CYP3A4 and against hERG were above 20 µM and 5.8 µM, respectively. In the data set “LogD”, this compound returned a logD of 4.6. In data set [2], this compound showed a PAMPA of −4.2.
`Cl.O=C(Cc1ccc(-c2ccccc2)cc1)Nc1cc(C2CC2)n[nH]1`: in the data set “RLM Cl”, the “RLM Cl” value came out at 3 L/h/kg. Further, the solubility is 13 µM in data set [1] and below 4 µM in “Solubility pH = 6.8”. Further, the results for the half-inhibitory concentration (IC50) against CYP3A4 and against hERG were above 20 µM and above 30 µM, respectively. The compound also gave a logD in the data set “LogD” of 4.2. Further, the PAMPA in data set [2] is recorded as −3.9.
For `O=C(Cc1ccc(B2C=CC=CN2)cc1)Nc1cc(C2CC2)[nH]n1`, the results for the IC50 at CYP3A4, on CDK2 and against hERG were 7.8 µM, 0.24 µM and above 30 µM, respectively.
For the compound `O=C(NCCS(=O)(=O)c1ccc(C(F)(F)F)cn1)c1ccc(-c2ccccc2)cc1`, in “RLM Cl”, the “RLM Cl” value is 2.32 L/h/kg. For the same compound, the IC50 was 3.9 µM against PPARδ, 1.4 µM at PPARγ, above 20 µM on CYP3A4 and above 20 µM at hERG. Also, the solubility (in [1]; in “Solubility pH = 6.8”) was below 4 µM each time. The compound also showed a logD in “LogD” of 3.5. In data set [2], this compound returned a PAMPA of −4.2.
In the case of `O=C(NCCS(=O)(=O)c1ccc(C(F)(F)F)cn1)c1ccc(B2C=CCCN2)cc1`, in “RLM Cl”, the “RLM Cl” value was above 3.18 L/h/kg. In addition, the IC50 was 1.4 µM on PPARδ (antagonist, read-out: PPARδ antagonist IC50); 4.8 µM at PPARγ; above 20 µM on CYP3A4; 0.052 µM at PPARα; above 30 µM against hERG. Also, the results for the solubility (in data set [1]; in “Solubility pH = 6.8”) were 6 µM (≈ 2.62 µg/mL) and below 4 µM, respectively. The logD in the data set “LogD” turned out to be 3.5. The PAMPA in data set [2] is listed as −4.5.
For the compound `CC(C)[C@@H](CN1CCN(c2cccc(O)c2)[C@@H](C)C1)NC(=O)c1ccc(-c2ccccc2)cc1`, the “RLM Cl” value in “RLM Cl” was above 3.18 L/h/kg. Moreover, the solubility in [1] was 349 µM (≈ 160 µg/mL); in the data set “Solubility pH = 6.8” it was 50 µM (≈ 22.9 µg/mL). Further, the IC50 on Opioid μ was 7.4 µM; at Opioid δ, above 30 µM; against CYP3A4, above 20 µM; against hERG it was above 30 µM. This compound also registered a logD in “LogD” of 5.2. Also, in data set [2], the PAMPA is given as −5.7.
For the compound `CC(C)[C@@H](CN1CCN(c2cccc(O)c2)[C@@H](C)C1)NC(=O)c1ccc(B2C=CCCN2)cc1`, in the data set “RLM Cl”, the “RLM Cl” value was above 3.18 L/h/kg. The solubility in data set [1] is 119 µM (≈ 54.8 µg/mL); in “Solubility pH = 6.8”, 26 µM (≈ 12 µg/mL). The IC50 at Opioid μ was 1 µM; on Opioid δ, above 14 µM; against CYP3A4, 16 µM; against hERG, 9.1 µM. In “LogD”, this compound yielded a logD of 4.9. The compound further returned a PAMPA in data set [2] of −5.0.
